Reference: ChEMBL document CHEMBL1130555, “Synthesis and biological activity of novel 3-trifluoromethyl taxoids” (Bioorg Med Chem Lett, 1997)

Columns and labels:
Format in all cases: functional, cell-based
[1] = tested on: HT-29; experiment: Cytotoxicity was evaluated against HT-29 colon carcinoma human cancer cell line
[2] = tested on: A121; experiment: Cytotoxicity was evaluated against A121 ovarian carcinoma human cancer cell line
[3] = tested on: MCF7R; experiment: Cytotoxicity was evaluated against MCF7-R (mammary carcinoma 180-fold resistant to doxorubicin, expressing MDR phenotype) human breast cancer cell line
[4] = tested on: A549; experiment: Cytotoxicity was evaluated against A549 non-small cell lung carcinoma human cancer cell line
[5] = tested on: MCF7; experiment: Cytotoxicity was evaluated against MCF-7 mammary carcinoma human breast cancer cell line

SMILES | IC50 [1] [nM] | IC50 [2] [nM] | IC50 [3] [nM] | IC50 [4] [nM] | IC50 [5] [nM]
CCC(=O)O[C@H]1C(=O)[C@@]2(C)[C@H]([C@H](OC(=O)c3ccccc3)[C@]3(O)C[C@H](OC(=O)[C@H](O)[C@@H](NC(=O)OC(C)(C)C)C(F)(F)F)C(C)=C1C3(C)C)[C@]1(OC(C)=O)CO[C@@H]1C[C@@H]2O | 0.4 | 0.3 | 14 | 0.3 | 0.3
CC(=O)O[C@@]12CO[C@@H]1C[C@H](O)[C@@]1(C)C(=O)[C@H](OC(=O)C3CC3)C3=C(C)[C@@H](OC(=O)[C@H](O)[C@@H](NC(=O)OC(C)(C)C)C(F)(F)F)C[C@@](O)([C@@H](OC(=O)c4ccccc4)[C@H]21)C3(C)C | 0.5 | 0.4 | 16 | 0.4 | 0.5
COC(=O)O[C@H]1C(=O)[C@@]2(C)[C@H]([C@H](OC(=O)c3ccccc3)[C@]3(O)C[C@H](OC(=O)[C@H](O)[C@@H](NC(=O)OC(C)(C)C)C(F)(F)F)C(C)=C1C3(C)C)[C@]1(OC(C)=O)CO[C@@H]1C[C@@H]2O | 0.4 | 0.3 | 21 | 0.2 | 0.4
CC(=O)O[C@@]12CO[C@@H]1C[C@H](O)[C@@]1(C)C(=O)[C@H](O)C3=C(C)[C@@H](OC(=O)[C@H](O)[C@@H](NC(=O)OC(C)(C)C)C(F)(F)F)C[C@@](O)([C@@H](OC(=O)c4ccccc4)[C@H]21)C3(C)C | 0.65 | 1.15 | 156 | 0.44 | 0.44
CC(=O)O[C@H]1C(=O)[C@@]2(C)[C@H]([C@H](OC(=O)c3ccccc3)[C@]3(O)C[C@H](OC(=O)[C@H](O)[C@@H](NC(=O)OC(C)(C)C)C(F)(F)F)C(C)=C1C3(C)C)[C@]1(OC(C)=O)CO[C@@H]1C[C@@H]2O | 0.4 | 0.3 | 156 | 0.2 | 0.6
CCCCC(=O)O[C@H]1C(=O)[C@@]2(C)[C@H]([C@H](OC(=O)c3ccccc3)[C@]3(O)C[C@H](OC(=O)[C@H](O)[C@@H](NC(=O)OC(C)(C)C)C(F)(F)F)C(C)=C1C3(C)C)[C@]1(OC(C)=O)CO[C@@H]1C[C@@H]2O | 1.4 | 0.7 | 26 | 0.8 | 0.7
CC(=O)O[C@@]12CO[C@@H]1C[C@H](O)[C@@]1(C)C(=O)[C@H](OC(=O)CC(C)(C)C)C3=C(C)[C@@H](OC(=O)[C@H](O)[C@@H](NC(=O)OC(C)(C)C)C(F)(F)F)C[C@@](O)([C@@H](OC(=O)c4ccccc4)[C@H]21)C3(C)C | 0.6 | 0.5 | 12 | 0.5 | 0.5
CC(=O)O[C@@]12CO[C@@H]1C[C@H](O)[C@@]1(C)C(=O)[C@H](OC(=O)N3CCOCC3)C3=C(C)[C@@H](OC(=O)[C@H](O)[C@@H](NC(=O)OC(C)(C)C)C(F)(F)F)C[C@@](O)([C@@H](OC(=O)c4ccccc4)[C@H]21)C3(C)C | 0.4 | 0.5 | 48 | 0.4 | 0.4
CC(=O)O[C@@]12CO[C@@H]1C[C@H](O)[C@@]1(C)C(=O)[C@H](OC(=O)N(C)C)C3=C(C)[C@@H](OC(=O)[C@H](O)[C@@H](NC(=O)OC(C)(C)C)C(F)(F)F)C[C@@](O)([C@@H](OC(=O)c4ccccc4)[C@H]21)C3(C)C | 0.4 | 0.3 | 17 | 0.2 | 0.6
